Results published in patent US10005816B2, “Peptides and their use in food and beverage” (priority 2014, dated 2018).
Where no end group is shown, it is not given here.

Experiment: Sensory evaluation of peptide additive in coffee brew by five expert panelists (Example 4)
Settings: 40 ppm additive in coffee brew; FOLGERS Classic Decaf roast and ground coffee; versus control brew without additive
Method: Coffee brews were prepared using a commercially available roast and ground coffee product (FOLGERS® brand Classic Decaf coffee) using a standard automatic drip coffee brewer (i.e., MR. COFFEE®). The brewing process was carried out as instructed on the coffee package. Each single peptide in Example 1 and peptide compositions in Examples 2 and 3 were mixed into to the coffee brew. Five expert panelists evaluated the effect of peptide additive on coffee flavor profile.

Q: With EELLPE [Peptide (Ie)] as the substance, how does the “Sensory Evaluation” value read?
A: The value was “Stronger than control, fuller”.

Q: For LACHLL [Peptide (Id)], which “Sensory Evaluation” value is on record?
A: The value was “Strange non-coffee taste charcoal,”.

Q: With “Pro-Pro-Thr-Leu-Leu (PPTLL) [Peptide (Ic)]” as the substance, how does the “Sensory Evaluation” value read?
A: The value was “Stronger than control, bitter”.

Q: For “Pro-Thr-Pro-Leu-Leu (PTPLL) [Peptide (Ia)]”, which “Sensory Evaluation” value is on record?
A: The value was “Stronger than control, very bitter”.
